Results reported in patent US20260297129A1, “PEPTIDES AS SELECTIVE IL-23 RECEPTOR INHIBITORS” (SANOFI, priority 2023, published 2026).
Like-named read-outs stand apart in the source and are kept apart here. Numbered stars: 1 amine (or outer) side, 2 acyl side, 3 side chain; on linkers, the order of the positions; unused ones are H or OH. Bridge positions count the residues as written; N and C are the ends. Square brackets hold non-standard residues; d marks the D form. Peptide text beside a SMILES is read from it. * marks the point of attachment. Lys(Me,(CH2)4NMe(CH2)5CO) = CN(CCCCCC(=O)[*:3])CCCCN(C)CCCC[C@H](N[*:1])C(=O)[*:2]; Lys(Me,(CH2)4NMe(CH2)4CO) = CN(CCCCC(=O)[*:3])CCCCN(C)CCCC[C@H](N[*:1])C(=O)[*:2]; Trp(7-Me) = Cc1cccc2c(C[C@H](N)C(=O)O)c[nH]c12; Trp(1-Me) = Cn1cc(C[C@H](N)C(=O)O)c2ccccc21; NH(2-(3-pyridyl)ethyl) = c1cncc(CCN*)c1; αMeLys(Me2) = CN(C)CCCC[C@](C)(N)C(=O)O; 2Nal = N[C@@H](Cc1ccc2ccccc2c1)C(=O)O; 3Pal = N[C@@H](Cc1cccnc1)C(=O)O; Thp = NC1(C(=O)O)CCOCC1; Me2NCH2CH2 = CN(C)CC*; Aib = CC(C)(N)C(=O)O; Sar = CNCC(=O)O

What was measured:
[1] = Solubility of peptide compounds in buffer formulations (Table 5); assay type: physicochemical; conditions: target 1 mg/ml
Description: Prior to the solubility measurement of a peptide batch, its purity was determined through UHPLC/MS method A.
For solubility testing the target concentration was 1 mg pure compound/ml. Therefore, solutions from solid samples were prepared in a buffer system at a concentration of 1 mg/mL compound. The solid samples were obtained by drying down aliquots of a freshly prepared dimethyl sulfoxide stock solution using a THERMO SPEEDVAC vacuum centrifuge. The dry down time was 3 hours.
The following buffer systems were applied: • Solubility buffer system A) 50 mM HCl pH 1.2 • Solubility buffer system B) 50 mM phosphate buffer pH 6.5 • Solubility buffer system C) 50 mM phosphate buffer pH 7.4 • UHPLC-UV was performed using analytical method A after 2 hours of gentle agitation from the filtered (0.45 μm filter plates) solutions, which were obtained by 10 mins of centrifugation forced filtration at 1500 RCF (relative centrifugal acceleration).
The solubility was determined by the comparison of the UV peak area of 2 μL-injections of a buffered sample diluted 1:10 with a standard curve of a dimethyl sulfoxide reference sample of known concentration. The different extinction coefficients were taken into account for the calculation.

[2] = Protease stability in simulated intestinal fluids (FaSSIF) (Table 7); assay type: in vitro ADME; conditions: fassif with pancreatin, 37° C.
Description: (§1) Studies were carried out in simulated intestinal fluid (SIF) and simulated gastric fluid (SGF) to evaluate gastric stability of the peptide compounds disclosed herein.
Similarly, the term “Pancreatin-SIF” refers to a solution of simulated intestinal fluid containing pancreatin whereas “SIF-media” refers to a solution of simulated intestinal fluid without pancreatin. Pancreatin-SIF was prepared by dissolving 1 mg Pancreatin (MP Biomedicals) in 10 mL SIF media concentrate (PROSENSE).
(§2) Peptide compounds were first dissolved at 1 mM stock concentration in 0.01 HCl (+/−10% of DMSO) and were than diluted further with water to a stock concentration of 20 μM. Final peptide concentration in the incubation was 1 μM.
(§3) To 76 μL of the Pepsin-SGF buffer, 4 μL of the 20 μM peptide stock solution was added and incubated at 37° C. At each timepoint (0, 60, 120 and 240 minutes) the reaction was quenched with addition of 80 μL Ethanol (0.1% HCOOH). The samples were centrifuged for 20 minutes and an aliquot of the supernatant 100 μL were transferred to a LoBind-MTP plate and analyzed by LCMS/MS. The peak area response was calculated at each time point for each test compound. As internal reference, the peak area response of the same test compound at T0 was calculated. The percentage remaining at each timepoint was calculated based on the peak area response ratio of the test compound at T0. Time 0 was set to 100%, and all later timepoints were calculated relative to time 0.

[3] = Protease stability in simulated gastric fluids (FaSSGF) (Table 7); assay type: in vitro ADME; conditions: fassgf with pepsin, 60 min, 37° C., read-out: Remaining percentage of peptide compound, FaSSGF 60 (min)
Description: as §1
For clarification, the term “Pepsin-SGF” refers to a solution of simulated gastric fluid containing pepsin whereas “SGF media” refers to a solution of simulated gastric fluid without pepsin. Pepsin-SGF was prepared by dissolving 320 mg Pepsin (Merck Millipore) in 100 mL SGF media concentrate (PROSENSE).
as §2
as §3, with “(0,1%” for “(0.1%”
as §3

[4] = tested on: IL-23 induced STAT3 signaling (IL-23 receptor) in HEK-Blue IL-23 cells; assay: Inhibition of IL-23 induced STAT3 signaling in HEK-Blue IL-23 cells, SEAP reporter (Table 9); assay type: cell-based; conditions: human IL23 0.25 ng/ml, overnight, read-out: Inhibition of IL-23 induced pSTAT3 (IC50 nM)
From the text: HEK-Blue™ IL-23 cells (INVIVOGEN) are designed for the detection of bioactive human (hIL-23) and murine IL-23 (mIL-23) by monitoring the activation of the STAT3 pathway. Binding of IL-23 to its receptor on the surface of HEK-Blue™ IL-23 cells triggers a signaling cascade leading to the activation of STAT3 and the subsequent production of secreted embryonic alkaline phosphatase (SEAP). This can be readily assessed using QUANTI-Blue™ Solution, a SEAP detection reagent.
HEK-Blue™ IL-23 cells were cultured as described by INVIVOGEN.
On the first day of assay 10 μL of the HEK-BLUE IL23 cell suspension (final concentration: 10,000 cells/well) and 10 μl of serially diluted peptides solutions were dispensed into a 384-well assay plate. After pre-incubation of the reaction mixtures at 37° C./5% CO2/95% humidity for 60 minutes, 10 μl of the humanIL23 cytokine (final concentration: 0.25 ng/ml) was added to each well for the STAT3 signaling activation. The plate was incubated overnight at 37° C./5% CO2/95% humidity.
On the second day 20 μl per well of QUANTI-BLUE detection solution (prepared according to the manufacture instruction) was dispensed into a new 384-well plate and followed by the transfer of 5 μl supernatant of the overnight incubated cell/sample mixtures. After incubation of 45 min at room temperature signals were measured with PHERASTAR (BMG) at OD 620-655 nm.
Dose response data were fitted with XLfit.

[5] = Buffer pH 1.1 (head; method: 50 mM HCl pH 1.2), 2 h agitation, read-out: Solubility, Buffer pH 1.1
[6] = aqueous buffer, 50 mM phosphate buffer pH 6.5, 2 h agitation, read-out: Solubility, Buffer pH 6.5
[7] = aqueous buffer, 50 mM phosphate buffer pH 7.4, 2 h agitation, read-out: Solubility, Buffer pH 7.4

| solubility at 2 h [1, 5] [µg/mL] | solubility at 2 h [1, 6] [µg/mL] | solubility at 2 h [1, 7] [µg/mL] | remaining at 1 h, 1 µM ([2]; 60 min, read-out: Remaining percentage of peptide compound, FaSSIF 60 (min)) [%] | remaining at 2 h, 1 µM ([2]; 120 min, read-out: Remaining percentage of peptide compound, FaSSIF 120 (min)) [%] | remaining at 4 h, 1 µM ([2]; 240 min, read-out: Remaining percentage of peptide compound, FaSSIF 240 (min)) [%] | remaining at 1 h, 1 µM [3] [%] | SMILES | IC50 [4] [nM] |
| --- | --- | --- | --- | --- | --- | --- | --- | --- |
| ≥ 1000 | ≥ 1120 | ≥ 950 | 97 | 94 | 94 | 100 | CN(C)CCOc1ccc(C[C@@H]2NC(=O)C3(CCOCC3)NC(=O)[C@H](CCC(N)=O)NC(=O)[C@H](Cc3cn(C)c4ccccc34)NC(=O)CCCCCN(C)CCCCN(C)CCCC[C@@H](C(=O)N[C@@H](CC(N)=O)C(=O)N[C@@H](Cc3cccnc3)C(=O)N(C)CC(N)=O)NC(=O)C(C)(C)NC(=O)[C@H](Cc3ccc4ccccc4c3)NC2=O)cc1 [compound 33] ([Trp(1-Me)]Q[Thp]Y(Me2NCH2CH2)[2Nal][Aib][Lys(Me,(CH2)4NMe(CH2)5CO)]N[3Pal][Sar]-NH2; lactam N-7) | 0.8 |
| ≥ 1360 | ≥ 1130 | ≥ 1120 | – | – | – | – | CC(=O)NCCCC[C@@H]1NC(=O)[C@H](Cc2c[nH]c3c(C)cccc23)NC(=O)CCCCN(C)CCCCN(C)CCCC[C@@H](C(=O)N[C@@H](CO)C(=O)N[C@@H](Cc2cccnc2)C(=O)N(C)CC(N)=O)NC(=O)[C@](C)(CCCCN(C)C)NC(=O)[C@H](Cc2ccc3ccccc3c2)NC(=O)[C@H](Cc2ccc(OCCN(C)C)cc2)NC(=O)C2(CCOCC2)NC1=O [compound 44] ([Trp(7-Me)]K(Ac)[Thp]Y(Me2NCH2CH2)[2Nal][αMeLys(Me2)][Lys(Me,(CH2)4NMe(CH2)4CO)]S[3Pal][Sar]-NH2; lactam N-7) | 1.19 |
| ≥ 970 | ≥ 890 | ≥ 880 | – | – | – | – | CC(=O)NCCCC[C@@H]1NC(=O)[C@H](Cc2cn(C)c3ccccc23)NC(=O)CCCCCN(C)CCCCN(C)CCCC[C@@H](C(=O)NCC(=O)NCCc2cccnc2)NC(=O)C(C)(C)NC(=O)[C@H](Cc2ccc3ccccc3c2)NC(=O)[C@H](Cc2ccc(OCCN(C)C)cc2)NC(=O)C2(CCOCC2)NC1=O [compound 23] ([Trp(1-Me)]K(Ac)[Thp]Y(Me2NCH2CH2)[2Nal][Aib][Lys(Me,(CH2)4NMe(CH2)5CO)]G-{NH(2-(3-pyridyl)ethyl)}; lactam N-7) | 39.2 |
